Measured values from patent US12060355B2, “Compounds for use in the treatment of fascioliasis” (Merck Patent GmbH, priority 2018, dated 2024).

Test system: human HepG2 cell lines
Format: cell-based
Conditions: human HepG2 cell line

Row | Structure (SMILES) | Cytotox HepG2
1 | CC(C)c1nc2cnc(-c3ccc(F)c(C(F)(F)F)c3)cn2c1-c1ccc2[nH]ncc2c1F [Example 2, 4-fluoro-5-{6-[4-fluoro-3-(trifluoromethyl)phenyl]-2-(propan-2-yl)imidazo[1,2-a]pyrazin-3-yl}-1H-indazole] | 10.4 µM
2 | Cc1nc2cnc(-c3cccc(C(F)(F)F)c3)cn2c1-c1c(F)cc(O)cc1F [Example 15, 3,5-difluoro-4-[2-methyl-6-[3-(trifluoromethyl)phenyl]imidazo[1,2-a]pyrazin-3-yl]phenol] | 8.4 µM
3 | Cc1nc2cnc(-c3ccc(F)c(C(F)(F)F)c3)cn2c1-c1c(F)cc(O)cc1F [Example 16, 3,5-difluoro-4-[2-methyl-6-[4-fluoro-3-(trifluoromethyl)phenyl]imidazo[1,2-a]pyrazin-3-yl]phenol] | 7.6 µM
4 | CC(C)c1nc2cnc(-c3cccc(C(F)(F)F)c3)cn2c1-c1c(F)cc(O)cc1F [Example 19, 3,5-difluoro-4-[2-(propan-2-yl)-6-[3-(trifluoromethyl)phenyl]imidazo[1,2-a]pyrazin-3-yl]phenol] | 7.5 µM
5 | CC(C)c1nc2cnc(-c3cccc(C(F)(F)F)c3)cn2c1-c1ccc2[nH]ncc2c1F [Example 21, 4-fluoro-5-{2-propan-2-yl-6-[3-trifluoromethylphenyl]imidazo[1,2-a]pyrazin-3-yl}-1H-indazole] | 15.1 µM
6 | CC(C)c1nn2cnc(-c3cccc(C(F)(F)F)c3)cc2c1-c1c(F)cc(O)cc1F [Example 24, 3,5-difluoro-4-(2-isopropyl-5-(3-(trifluoromethyl)phenyl)pyrazolo[1,5-c]pyrimidin-3-yl)phenol] | 8.4 µM
7 | Fc1c(-c2c(C(F)(F)F)nc3cnc(-c4cccc(C(F)(F)C(F)(F)F)c4)cn23)ccc2[nH]ncc12 [Example 29, 4-fluoro-5-{2-trifluoromethyl-6-[3-(pentafluoroethyl)phenyl]imidazo[1,2-a]pyrazin-3-yl}-1H-indazole] | 8.9 µM
8 | COc1ccc(-c2c(C(F)(F)F)nc3cnc(-c4cccc(C(F)(F)C(F)(F)F)c4)cn23)cc1O [Example 30, 2-methoxy-5-[2-(trifluoromethyl)-6-[3-(pentafluoroethyl)phenyl]imidazo[1,2-a]pyrazin-3-yl]phenol] | 11.1 µM
9 | Fc1ccc(-c2cn3c(-c4ccc5[nH]ncc5c4F)c(C4CC4)nc3cn2)cc1C(F)(F)F [Example 32, 4-fluoro-5-{2-cyclopropyl-6-[4-fluoro-3-(trifluoromethyl)phenyl]imidazo[1,2-a]pyrazin-3-yl}-1H-indazole] | 16.1 µM
10 | CC1(c2nc3cnc(-c4ccc(F)c(C(F)(F)F)c4)cn3c2-c2c(F)cc(O)cc2F)CC1 [Example 33, 3,5-difluoro-4-[2-(1-methyl-cycloprop-1-yl)-6-[4-fluoro-3-(trifluoromethyl)phenyl]imidazo[1,2-a]pyrazin-3-yl]phenol] | 7.9 µM
11 | Oc1cc(F)c(-c2c(C3CC3)nc3cnc(-c4ccc(F)c(C(F)(F)F)c4)cn23)c(F)c1 [Example 34, 4-(2-cyclopropyl-6-(4-fluoro-3-(trifluoromethyl)phenyl)imidazo[1,2-a]pyrazin-3-yl)-3,5-difluorophenol] | 8.9 µM
12 | Oc1cc(F)c(-c2c(C3CCC3)nc3cnc(-c4ccc(F)c(C(F)(F)F)c4)cn23)c(F)c1 [Example 35, 4-(2-cyclobutyl-6-(4-fluoro-3-(trifluoromethyl)phenyl)imidazo[1,2-a]pyrazin-3-yl)-3,5-difluorophenol] | 5.7 µM
13 | CCc1nc2cnc(-c3ccc(F)c(C(F)(F)F)c3)cn2c1-c1c(F)cc(O)cc1F [Example 36, 3,5-difluoro-4-[2-ethyl-6-[4-fluoro-3-(trifluoromethyl)phenyl]imidazo[1,2-a]pyrazin-3-yl]phenol] | 8.3 µM
14 | CCc1nc2cnc(-c3ccc(F)c(C(F)(F)F)c3)cn2c1-c1ccc2[nH]ncc2c1F [Example 37, 4-fluoro-5-{2-ethyl-6-[4-fluoro-3-(trifluoromethyl)phenyl]imidazo[1,2-a]pyrazin-3-yl}-1H-indazole] | 13.1 µM
15 | CC(C)c1nc2cnc(-c3cccc(S(F)(F)(F)(F)F)c3)cn2c1-c1c(F)cc(O)cc1F [Example 39, 3,5-difluoro-4-[2-(propan-2-yl)-6-[3-(pentafluorosulfanyl)phenyl]imidazo[1,2-a]pyrazin-3-yl]phenol] | 6.6 µM
16 | Fc1c(-c2c(C3CC3)nc3cnc(-c4cccc(S(F)(F)(F)(F)F)c4)cn23)ccc2[nH]ncc12 [Example 46, 2-cyclopropyl-3-(4-fluoro-1H-indazol-5-yl)-6-(3-(pentafluoro-λ6-sulfaneyl)phenyl)imidazo[1,2-a]pyrazine] | 20.7 µM
17 | CCc1nn2cnc(-c3ccc(F)c(C(F)(F)F)c3)cc2c1-c1c(F)cc(O)cc1F [Example 48, 4-(2-ethyl-5-(4-fluoro-3-(trifluoromethyl)phenyl)pyrazolo[1,5-c]pyrimidin-3-yl)-3,5-difluorophenol] | 9.8 µM

Row | Structure (SMILES) | Cytotox HepG2
18 | Cc1nc2cnc(-c3cccc(C(F)(F)C(F)(F)F)c3)cn2c1-c1c(F)cc(O)cc1F [Example 49, 3,5-difluoro-4-[2-methyl-6-[3-(pentafluoroethyl)phenyl]imidazo[1,2-a]pyrazin-3-yl]phenol] | 9.3 µM
19 | CCc1nc2cnc(-c3cccc(C(F)(F)C(F)(F)F)c3)cn2c1-c1c(F)cc(O)cc1F [Example 52, 4-[2-Ethyl-6-(3-pentafluoroethyl-phenyl)-imidazo[1,2-a]pyrazin-3-yl]-3,5-difluoro-phenol] | 8.0 µM
20 | Cc1nc2cnc(-c3ccc(F)c(C(F)(F)C(F)(F)F)c3)cn2c1-c1c(F)cc(O)cc1F [Example 53, 3,5-Difluoro-4-[6-(4-fluoro-3-pentafluoroethyl-phenyl)-2-methyl-imidazo[1,2-a]pyrazin-3-yl]-phenol] | 8.8 µM
21 | Oc1cc(F)c(-c2c(C3CC3)nc3cnc(-c4ccc(F)c(S(F)(F)(F)(F)F)c4)cn23)c(F)c1 [Example 56, 4-[2-Cyclopropyl-6-(4-fluoro-3-pentafluorosulfanyl-phenyl)-imidazo[1,2-a]pyrazin-3-yl]-3,5-difluoro-phenol] | 10.1 µM
22 | Fc1ccc(-c2cn3c(-c4ccc5[nH]ncc5c4F)c(C4CC4)nc3cn2)cc1S(F)(F)(F)(F)F [Example 57, 2-Cyclopropyl-3-(4-fluoro-1H-indazol-5-yl)-6-(4-fluoro-3-pentafluorosulfanyl-phenyl)-imidazo[1,2-a]pyrazine] | 14.8 µM
23 | CC(C)c1nn2cnc(-c3ccc(F)c(C(F)(F)C(F)(F)F)c3)cc2c1-c1ccc2[nH]ncc2c1F [Example 58, 3-(4-Fluoro-1H-indazol-5-yl)-5-(4-fluoro-3-pentafluoroethyl-phenyl)-2-isopropyl-pyrazolo[1,5-c]pyrimidine] | 10.8 µM
24 | Fc1ccc(-c2cn3c(-c4ccc5[nH]ncc5c4F)c(C(F)(F)F)nc3cn2)cc1C(F)(F)C(F)(F)F [Example 63, 3-(4-Fluoro-1H-indazol-5-yl)-6-(4-fluoro-3-pentafluoroethyl-phenyl)-2-trifluoromethyl-imidazo[1,2-a]pyrazine] | 11.7 µM
25 | Fc1ccc(-c2cn3c(-c4ccc5[nH]ncc5c4F)c(C(F)(F)F)nc3cn2)cc1S(F)(F)(F)(F)F [Example 65, 3-(4-Fluoro-1H-indazol-5-yl)-6-(4-fluoro-3-pentafluorosulfanyl-phenyl)-2-trifluoromethyl-imidazo[1,2-a]pyrazine] | 11.1 µM
26 | CC(C)c1cccc(-c2cn3c(-c4ccc5[nH]ncc5c4F)c(C(F)(F)F)nc3cn2)c1 [Example 66, 3-(4-Fluoro-1H-indazol-5-yl)-6-(3-isopropyl-phenyl)-2-trifluoromethyl-imidazo[1,2-a]pyrazine] | 12.9 µM
27 | CC(C)c1cc(-c2cn3c(-c4ccc5[nH]ncc5c4F)c(C(F)(F)F)nc3cn2)ccc1F [Example 67, 3-(4-Fluoro-1H-indazol-5-yl)-6-(4-fluoro-3-isopropyl-phenyl)-2-trifluoromethyl-imidazo[1,2-a]pyrazine] | 17.0 µM
28 | Fc1ccc(-c2cn3c(-c4ccc5[nH]ncc5c4F)c(C(F)(F)F)nc3cn2)cc1CC(F)(F)F [Example 69, 3-(4-Fluoro-1H-indazol-5-yl)-6-[4-fluoro-3-(2,2,2-trifluoro-ethyl)-phenyl]-2-trifluoromethyl-imidazo[1,2-a]pyrazine] | 5.3 µM
29 | Fc1ccc(-c2cn3c(-c4ccc5[nH]ncc5c4F)c(C(F)(F)F)nc3cn2)cc1OC(F)(F)F [Example 71, 3-(4-Fluoro-1H-indazol-5-yl)-6-(4-fluoro-3-trifluoromethoxy-phenyl)-2-trifluoromethyl-imidazo[1,2-a]pyrazine] | 12.2 µM
30 | Fc1c(-c2c(C(F)(F)F)nc3cnc(-c4cccc(OC(F)(F)F)c4)cn23)ccc2[nH]ncc12 [Example 72, 3-(4-Fluoro-1H-indazol-5-yl)-6-(3-trifluoromethoxy-phenyl)-2-trifluoromethyl-imidazo[1,2-a]pyrazine] | 9.7 µM
31 | CC(C)c1cc(-c2cn3c(-c4ccc5[nH]ncc5c4F)c(C(C)C)nc3cn2)ccc1F [Example 74, 3-(4-Fluoro-1H-indazol-5-yl)-6-(4-fluoro-3-isopropyl-phenyl)-2-isopropyl-imidazo[1,2-a]pyrazine] | 11.0 µM
32 | CCc1nc2cnc(-c3ccc(F)c(C(C)C)c3)cn2c1-c1ccc2[nH]ncc2c1F [Example 75, 2-Ethyl-3-(4-fluoro-1H-indazol-5-yl)-6-(4-fluoro-3-isopropyl-phenyl)-imidazo[1,2-a]pyrazine] | 11.3 µM
33 | CC(C)c1cc(-c2cn3c(-c4ccc5[nH]ncc5c4F)c(C4CCC4)nc3cn2)ccc1F [Example 77, 2-Cyclobutyl-3-(4-fluoro-1H-indazol-5-yl)-6-(4-fluoro-3-isopropyl-phenyl)-imidazo[1,2-a]pyrazine] | 10.8 µM
